Assay results from patent US10167270B2, “Substituted quinazoline compounds and uses thereof for modulating glucocerebrosidase activity” (Northwestern University, priority 2015, dated 2019).
“Also recorded” adds a separate entry of the source. Where two headings read alike, the source gives them in different places.

Columns and labels:
[1] = target: α-galactosidase A (GLA) (Homo sapiens (Human), UniProt P06280); test: Enzyme selectivity assay, α-galactosidase A; assay type: biochemical; conditions: up to 100 μM
α-galactosidase A (GLA), sequence (P06280 32-429): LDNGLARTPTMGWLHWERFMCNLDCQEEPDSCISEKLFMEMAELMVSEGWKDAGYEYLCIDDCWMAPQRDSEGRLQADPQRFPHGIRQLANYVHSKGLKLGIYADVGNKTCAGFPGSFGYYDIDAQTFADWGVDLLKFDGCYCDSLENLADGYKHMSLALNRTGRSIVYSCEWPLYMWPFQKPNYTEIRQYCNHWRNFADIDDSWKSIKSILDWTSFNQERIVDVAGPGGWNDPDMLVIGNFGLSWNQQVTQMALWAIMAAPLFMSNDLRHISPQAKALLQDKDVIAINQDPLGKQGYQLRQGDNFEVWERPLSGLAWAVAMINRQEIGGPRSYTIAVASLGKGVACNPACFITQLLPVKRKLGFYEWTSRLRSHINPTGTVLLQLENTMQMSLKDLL
Source text: (§1) Louis, Mo.). The recombinant wild-type GCase enzyme velaglucerase alfa ([…] Human Genetic Therapies, Inc.), acid α-glucosidase enzyme alglucosidase alfa (Lumizyme®, Genzyme Corporation), α-galactosidase A enzyme agalsidase beta (Fabrazyme®, Genzyme Corporation) were used in activity assays. […] The acid α-glucosidase and α-galactosidase A enzyme activity assay methods were similar to the GCase enzyme activity assay above with slight modifications.

[2] = target: T1, wild-type GCase (Homo sapiens (Human), UniProt P04062); test: Fluorescence thermal shift analysis; assay type: binding; conditions: for stabilization of GCase (melting point change): pH 5.0, in words
T1 sequence (P04062 40-536): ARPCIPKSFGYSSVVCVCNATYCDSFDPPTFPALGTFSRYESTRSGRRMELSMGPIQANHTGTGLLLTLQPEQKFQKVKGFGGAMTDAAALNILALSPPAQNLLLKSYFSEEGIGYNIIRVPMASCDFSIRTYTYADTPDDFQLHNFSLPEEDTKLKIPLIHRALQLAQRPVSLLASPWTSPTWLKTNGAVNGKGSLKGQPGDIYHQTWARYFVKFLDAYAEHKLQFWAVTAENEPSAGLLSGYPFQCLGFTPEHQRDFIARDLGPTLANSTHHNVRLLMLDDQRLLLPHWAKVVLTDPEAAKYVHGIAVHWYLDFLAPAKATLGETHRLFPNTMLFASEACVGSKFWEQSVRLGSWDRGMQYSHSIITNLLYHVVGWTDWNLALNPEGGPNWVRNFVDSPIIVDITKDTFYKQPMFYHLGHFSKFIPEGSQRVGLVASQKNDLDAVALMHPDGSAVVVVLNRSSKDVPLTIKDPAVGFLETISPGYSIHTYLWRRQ
Source text: Compounds shown to act as pharmacological chaperones for GCase (or other lysosomal enzymes) also stabilize the enzyme against thermal denaturation. A fluorescent thermal shift assay was developed to evaluate the binding affinity of ligands with protein^30. […] The maximum thermal shift of these compounds corresponded to their inhibitory activity at pH 5.0.
A robotic pipeline in the High Throughput Analysis Laboratory (HTAL) was used for protein ligand screening by fluorescence thermal shift (FTS) analysis. The pipeline used a Mosquito robot (TTP Labtech) for protein dispensing and an Echo 550 (Labcyte) to add compounds. Thermal scanning coupled with fluorescence detection was performed on a real-time PCR machine CFX384 (Bio-Rad Laboratories). The assay was run in 384-well PCR plates, using 10 μL citric acid/K2HPO4 buffer (50 mM citric acid, 150 mM K2HPO4, pH 5.0) per well. The assay concentration for protein was 1 μM and that for Sypro Orange (Invitrogen) was 5×. Protein was premixed with Sypro Orange and dispensed to a plate first, and compounds were added. Final concentrations of compounds ranged from 0.5 to 200 μM. Then the plate was sealed with an optical seal, shaken, and centrifuged. The thermal scan was from 10 to 95° C. with a temperature ramp rate of 1.5° C./min. The fluorescence was recorded every 10 sec. Data analysis and report generation were performed using the in-house software excelFTS.

[3] = target: acid α-glucosidase (GAA) (Homo sapiens (Human), UniProt P10253); test: Enzyme selectivity assay, acid α-glucosidase; assay type: biochemical; conditions: up to 100 μM
Source text: as §1

[4] = target: T2, N370S mutant GCase in patient fibroblasts (Homo sapiens (Human), UniProt P04062, N370S); test: GCase protein level in N370S fibroblasts by Western blot; assay type: cell-based; conditions: 3 days treatment
T2 sequence (P04062 40-536 N409S): as the sequence (P04062 40-536) above, with N370S counted along it
Procedure: (§2) The N370S fibroblast cell line was obtained from Coriell, GM00372, cultured in DMEM medium (Life Tech) including 1% v/v L-glutamine 200 mM (Life Tech), 1% v/v pen strep (Life Tech), 10% FBS (Life Tech) at 37° C. and 5% CO2 and treated with different compounds at 0.2 μM and 2 μM. After a 3-day treatment, cells were washed with inhibitor free media 3 times and fed with inhibitor free media for 1 day, followed by 1% Triton X-100 lysis buffer to lyse cells. Protein concentrations were measured with a Bradford kit (Thermo), and the GCase activity was determined at pH 5.5.
Proteins were denatured in 20% SDS sample buffer at 100° C. for 10 min; 10% Bis-Tris gel (Life Tech) was used for gels; Trans-Blot Turbo PVDF kit (Bio-Rad) was used for membrane transfer, and Chemidoc MP system (Bio-Rad) was used to analyze the blots.

[5] = target: T1, wild-type GCase; test: GCase enzyme activity assay (4MU-β-Glc, no taurocholate); assay type: biochemical; conditions: for decrease of inhibitory activity at pH 5.0 compared to pH 5.9: pH 5.0 vs pH 5.9
Procedure: In previous studies, high concentrations of taurocholate (4-10 mM) were used to improve the signal in GCase enzyme activity assays^16,27,28. […] Here we describe our modifications of the substituents on the quinazoline ring.
4-Methylumbelliferyl β-D-glucopyranoside (4MU-β-Glc), 4-methylumbelliferyl α-D-glucopyranoside,4-methylumbelliferyl α-D-galactopyranoside, and buffer components were purchased from Sigma-Aldrich (St. Louis, Mo.). The recombinant wild-type GCase enzyme velaglucerase alfa (Vpriv®, Shire Human Genetic Therapies, Inc.), acid α-glucosidase enzyme alglucosidase alfa (Lumizyme®, Genzyme Corporation), α-galactosidase A enzyme agalsidase beta (Fabrazyme®, Genzyme Corporation) were used in activity assays. […] A solution of 1 M sodium hydroxide and 1 M glycine (pH 10) was used as the stop solution for all three enzyme activity assays.
The compounds in DMSO solution (0.5 μL/well) were transferred to a black 96-well plate (the final titration started from 100 μM, a 12 or 24-point 2-fold dilution series). […] After 5 min of incubation at room temperature, the enzyme reaction was initiated by the addition of blue substrate (4MU-13-Glc) (33 μL/well). The final concentration of the blue substrate was 1.5 mM. The blue substrate reaction was terminated by the addition of 33 μL/well stop solution (1 M NaOH and 1 M glycine mixture, pH 10) after 30 min of incubation at 37° C. […] The selected compounds were further assayed under pH 5.0 and pH 7.0 to evaluate their selectivity under various pH conditions.

[6] = target: T2, N370S mutant GCase in patient fibroblasts; test: GCase activity in N370S fibroblasts after compound treatment; assay type: cell-based; conditions: 3-day treatment
Procedure: as §2

[7] = target: T3, GCase (Homo sapiens (Human), UniProt P04062); test: Enzyme kinetic assay (resorufin β-D-glucopyranoside); assay type: biochemical; conditions: substrate 30-150 μM
T3 sequence (P04062 40-536): as the sequence (P04062 40-536) above
Procedure: We further tested compounds 4 and 11g by measuring GCase activity at various substrate concentrations (30-150 μM) and in the absence or presence of increasing concentrations of GCase inhibitors.
The substrate resorufin β-D-glucopyranoside was diluted to five concentrations, ranging from 30 to 150 μM. Seven concentrations of inhibitors (between 0.5- and 5-fold of IC50 value) and a DMSO control were added to the enzyme solution. The final enzyme concentration was 10 nM to give a linear reaction over 10 min. Enzyme kinetics were measured by the addition of 66 μL of substrate to a 96-well assay plate, followed by 33 μL of enzyme solution (with or without inhibitor) using a dispense module on a Biotek Synergy H1 multi-mode plate reader. The increase in product fluorescence was measured at 1 min intervals for 10 min in the plate reader. The rate of product formation was calculated by converting the fluorescence units to nanomoles of product per minute using a standard curve of the free fluorophore, resorufin.

[8] = target: T3, GCase; test: Fluorescence polarization assay; assay type: binding
Procedure: The fluorescent probe 3 (25 nL/well, 50 nM final concentration) was transferred to a 384-well black plate using a Labcyte Echo 550 Liquid Handler system. The 25 μL/well enzyme dilutions with GCase enzyme activity buffer were added to the plate, which was shaken at room temperature in dark for 20 min. The final titration was 5 nM to 10 μM, 10 concentrations, 2 times dilution. The fluorescence polarization was measured in Molecular Devices Analyst GT with Ex=535 nm and Em=580 nm, G Factor=1.05.

[9] = pH 5.0, mean ± SD, read-out: IC50 pH 5.0
[10] = pH 5.9, mean ± SD, read-out: IC50 pH 5.9
[11] = pH 7.0, mean ± SD, read-out: IC50 pH 7.0

activity of α-galactosidase A on compound treatment [1] | activity of acid α-glucosidase on compound treatment [3] | IC50 [5, 9] | decrease of inhibitory activity at pH 5.0 compared to pH 5.9 [5] | IC50 [5, 10] | IC50 [5, 11] | GCase activity in patient cells [6] | Kd [8] | SMILES | stabilization of GCase (melting point change) [2] | concentration of GCase protein [4] | other results
not significantly changed | not significantly changed | 13.9 ± 1.9 nM | only dropped slightly | 8.2 ± 1 nM | 12.9 ± 2 nM |  |  | c1csc(-c2nc(NC3Cc4ccccc4C3)c3ccccc3n2)c1 [Compound 11f, N-(2,3-dihydro-1H-inden-2-yl)-2-(thiophen-2-yl)quinazolin-4-amine] | stabilize wild-type GCase in a dose-dependent manner; also recorded: increased the GCase melting point in a dose-dependent manner | significantly increased the concentration of GCase | 
not significantly changed | not significantly changed | 8.9 ± 1.3 nM | only dropped slightly | 5.2 ± 0.6 nM | 6.6 ± 1 nM | increased GCase activity |  | c1ccc2c(c1)CC(Nc1nc(-c3ccsc3)nc3ccccc13)C2 [Compound 11g, N-(2,3-dihydro-1H-inden-2-yl)-2-(thiophen-3-yl)quinazolin-4-amine] | stabilize wild-type GCase in a dose-dependent manner; also recorded: increased the GCase melting point in a dose-dependent manner | significantly increased the concentration of GCase | maximum thermal shift ([2]; pH 5.0): around 11 °C; type of inhibition (Lineweaver-Burk) [7]: linear mixed inhibition
 |  |  |  |  |  | had no effect |  | OC[C@H]1CNC[C@@H](O)[C@@H]1O [IFG, Isofagomine, reference compound] | stabilize wild-type GCase in a dose-dependent manner | did not have an effect | 
 |  |  |  |  |  |  | 79 nM | CN(C)c1ccc2c(-c3ccc(C(=O)NCCCCCC(=O)Nc4ccc(-c5nc(NC6Cc7ccccc7C6)c6ccccc6n5)cc4)cc3C(=O)O)c3ccc(=[N+](C)C)cc-3oc2c1 [compound 158] |  |  | 
 |  |  |  |  |  |  | 126 nM | CN(C)c1ccc2c(-c3ccc(C(=O)NCCOCCOCC(=O)Nc4ccc(-c5nc(NC6Cc7ccccc7C6)c6ccccc6n5)cc4)cc3C(=O)O)c3ccc(=[N+](C)C)cc-3oc2c1 [compound 159] |  |  | 
 |  |  |  |  |  |  | 7.1 nM | CN(C)c1ccc2c(-c3ccc(C(=O)NCCOCCOCCOCCOCCC(=O)NCCCCCC(=O)Nc4ccc(-c5nc(NC6Cc7ccccc7C6)c6ccccc6n5)cc4)cc3C(=O)O)c3ccc(=[N+](C)C)cc-3oc2c1 [compound 160] |  |  | 
